Measured values reported in patent publication EP1598418A1, “STABILISED COMPOSITION FOR FLUORIMETRIC, COLORIMETRIC OR CHEMOLUMINESCENT ASSAYS, KITS CONTAINING SAME AND PRODUCTION METHOD THEREOF” (BIOTOOLS BIOTECHNOLOGICAL & MEDICAL LABORATORIES, S.A., priority 2003, dated 2004).

Legend:
avidin = avidin (Gallus gallus, UniProt P02701); settings: avidin/biotin complex; cited from earlier work
[1] = test system: nucleic acids immobilised in modified glasses; assay: Colorimetric assay of stabilised nucleic acids immobilised in modified glasses (Example 10.3); type: biochemical, HPV 16; settings: conserved at T 4 °C, vs fresh mixture
Description: Approach 1. Stabilisation of supports with previously fixed nucleic acids. HPV specific probes were fixed to glass supports pre-treated with polylysiun, aldehyde, epoxy, superepoxy and silane. To do so, in each support slide 1 microlitre spots were applied of the solution of each oligonucleotide at a concentration of 20 µM in the conditions indicated for each glass format. The slides with the immobilised oligonucleotides were then coated with a thin layer of each of the stabilising mixtures and then desiccated in a vacuum oven at 25°C and 50 mbar pressure.
(§1) Approach 2. Fixation to the slides of the nucleic acids pre-mixed with the stabilising mixtures. A mixture was prepared of each of the probes with the suitable volumes of the stabilising mixtures described in Table 1. Then the mixtures of oligonucleotides were applied to the various slides with the fixing conditions indicated for each glass format.
To test the viability of each slide prepared, a colorimetric assay was performed with formation of precipitate products. To do so, the slides were washed for 5 minutes in PBS 1X at room temperature to eliminate the protective layer. Then the slides were incubated in the presence of an amplified and previously denatured HPV 16 product using the probes A11 and A12.

[2] = test system: Molecular Beacon (MB) probe; assay: Real-time amplification with desiccated, stabilised reaction mixture with Molecular Beacon probe after storage (Example 3); type: biochemical, P. falciparum; settings: conserved at T 4 °C, vs fresh mixture
[3] = test system: nucleic acids immobilised in ELISA microplates; assay: Amplification and colorimetric detection with stabilised nucleic acids immobilised in ELISA microplates (Example 10.1); settings: conserved at T 4 °C, vs fresh mixture
[4] = test system: reaction mixture with SYBR Green; assay: Real-time amplification with desiccated, stabilised reaction mixture with SYBR Green after storage (Example 5); type: biochemical, oncogenic papillomaviruses; settings: conserved at T 4 °C, vs fresh mixture
Description: To test the efficiency of intercalated fluorophores such as SYBR Green included in desiccated and stabilised reaction mixtures, reaction mixtures were prepared for amplifying a 250 bp fragment corresponding to region E6-E7 of oncogenic papillomaviruses, using the same reagents as described in Example 1. In this case the unit "DNA Engine OPTICON™ 2 System" (MJ Research) was used. […] Also to each phial was added […] of SYBR Green 1 (Molecular probes).
Various tubes were prepared as described above, adding to each the suitable volume of each stabilising mixture shown in Table 1.
In parallel, in order to check the evolution of the activity of the desiccated tubes, DNA samples were amplified using a fresh mixture in the same amplification conditions.
The result of the amplification reaction was analysed in every case by inspecting the fluorescence curve and determining the crossing point, following the instructions of the equipment software, for each reaction tube both fresh and desiccated and stabilised. […] The samples of patients infected with oncogenic HPV gave positive results in every case, while patients infected with non-oncogenic HPV, or not infected with HPV, gave negative results in every case.

[5] = test system: probes marked with biotin or digoxygenin groups; assay: Synthesis of digoxygenin-marked probes with desiccated mixtures and molecular hybridisation test (Example 9); settings: conserved at T 4 °C, vs fresh mixture
Scorpion probes = assay: Real-time amplification with desiccated, stabilised reaction mixture with Scorpion probes after storage (Example 4); type: biochemical, M. tuberculosis; settings: conserved at T 4 °C, vs fresh mixture
[6] = test system: Anti-digoxygenin antibodies; assay: Colorimetric assay of stabilised proteins immobilised in modified glasses (Example 10.4); type: biochemical, P. falciparum; settings: conserved at T 4 °C, vs fresh mixture
Description: To test the possibility of stabilising proteins that have been previously immobilised in pre-treated glass supports, the usual format of microarray systems, two different alternatives were tested as in the previous experiment.
Approach 1. Stabilisation of supports with previously fixed protein. Anti-digoxygenin antibodies were fixed to glass supports pre-treated with aldehyde. To do so, in each support slide 1 microlitre spots were applied of the solution of each protein at a concentration of 30 ng/µl. The slides with the immobilised protein were then coated with a thin layer of each of the stabilising mixtures and then desiccated in a vacuum oven at 25°C and 50 mbar pressure.
as §1, with “protein” for “nucleic acids”, “protein” for “oligonucleotides”
To test the viability of each slide prepared, a colorimetric assay was performed with formation of precipitate products. To do so, the slides were washed for 5 minutes in PBS 1X at room temperature to eliminate the protective layer.

[7] = test system: oligonucleotides chemically modified by including biotin and/or digoxygenin groups; assay: Amplification with desiccated biotin/digoxygenin oligonucleotides and colorimetric ELISA plate assay (Example 7); type: biochemical, oncogenic HPV; settings: conserved at T 4 °C, vs fresh mixture
Description: To do so, 4 oligonucleotides were designed that hybridised with the genome of region E6-E7 of oncogenic HPV species.
To do so, an ELISA microplate with a high-binding capacity to streptoavidin (Biospa) was activated following a standard fixing protocol. Then, after blocking the plate by incubation with gelatine, the amplified products of the stabilising mixtures 1, 2 and 3 described in Example 7.A were analysed by a colorimetry assay according to the following experimental process: • A.- Amplification products using an onligonucleotide marked with digoxygenin (mixture 1 in Example 7.A). The biotinated probe A11 was fixed to the plate and the amplified product was hybridised. […] The amplification product was fixed to the plate with the first biotinilate and then hybridised with the first A12 marked with digoxygenin.

[8] = test system: DTCS Quick Start Master Mix; assay: Sequencing reaction with desiccated, stabilised mixture with fluorescent terminators after storage (Example 6); type: biochemical, human papillomavirus; settings: conserved at T 4 °C, vs fresh mixture
Description: To test the possibility of gelling reaction mixtures for sequencing nucleic acids the CEQ 200 Dye Terminator Cycle Sequencing (DTCS) Quick Start Kit (Beckman Coulter) was employed, which uses a PCR sequencing system in a single tube by incorporating four different fluorescent terminators. The sequencing reactions were later analysed in a CEQ 2000 XL DNA Analysis System (Beckman Coulter) capillary electrophoresis automatic sequencing system.
Reaction mixtures were prepared containing 4 microlitres of DTCS Quick Start Master Mix, 1 microlitre of universal primer M13-17 and the suitable volume of each stabilising mixture shown in Table 1.
In parallel, in order to check the evolution of the activity of the desiccated and stabilised tubes, the same plasmid was sequenced using a fresh sequencing mixture in standard conditions. Finally, the sequencing reactions were analysed in the CEQ 200XL system following the supplier's instructions.

FRET probes = assay: Real-time amplification with desiccated, stabilised reaction mixture with FRET probes after storage (Example 1); type: biochemical, P. falciparum; settings: conserved at T 4 °C, vs fresh mixture
antidigoxygenin antibody = assay: Colorimetry assay of stabilised protein immobilised in ELISA microplates (Example 10.2); type: biochemical, HPV; settings: conserved at T 4 °C, vs fresh mixture
Description: To do so each dimple was incubated with 1µg of antidigoxygenin antibody (Roche).
The amplified product was incubated for 30 minutes in the dimples with the antibody immobilised. The amplified products immobilised in the plate by the union of the digoxygenin group of the amplicons and the immobilised anti-digoxygenin group were analysed by a colorimetric assay. […] The colorimetric reaction was finally analysed by measuring absorption at 415 nm.

TaqMan probes = assay: Real-time amplification with desiccated, stabilised reaction mixture with TaqMan probes after storage (Example 2); type: biochemical, P. falciparum; settings: conserved at T 4 °C, vs fresh mixture
[9] = test system: streptoavidin conjugated with HRP (Str-HRP) and anti-digoxygenin conjugated with alkaline phospatase (anti-DIG-AP); assay: Colorimetric ELISA plate activity test of desiccated, stabilised conjugates (Example 8); type: biochemical, HPV 16; settings: conserved at T 4 °C, vs fresh mixture
Description: In 0.2 ml amplification tubes were added 100 microlitres of a 1/250 dilution in a blocking solution of the conjugate Str-HRP (Biospa). In parallel, 0.2 ml phials were prepared in which 100 microlitres were added of a 1/250 dilution in a blocking solution of anti-DIG-AP (Sigma).
For the activity assay of the conjugate anti-DIG-AP an ELISA plate was used in which the dimples had been previously coated with streptoavidin. For the activity assay of conjugate Str-HRP a plate was used instead with dimples previously coated with anti-DIG antibodies. The amplified products were incubated in each plate to allow the immobilisation of the amplicons in the plate.

avidin, sequence (P02701 25-152): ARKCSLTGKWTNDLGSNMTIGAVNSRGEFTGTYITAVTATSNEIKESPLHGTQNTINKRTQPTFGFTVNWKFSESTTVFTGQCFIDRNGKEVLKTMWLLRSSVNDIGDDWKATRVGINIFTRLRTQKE

Structure (SMILES)	dissociation energy (avidin) [kcal/mol]	activity of stabilising mixtures [1]	activity of stabilising mixtures [2]	activity of stabilising mixtures [3]	activity of stabilising mixtures [4]	activity of stabilising mixtures [5]	activity of stabilising mixtures (Scorpion probes)	activity of stabilising mixtures [6]	activity of stabilising mixtures [7]	activity of stabilising mixtures [8]	activity of stabilising mixtures (FRET probes)	activity of stabilising mixtures (antidigoxygenin antibody)	activity of stabilising mixtures (TaqMan probes)	activity of stabilising mixtures [9]
O=C(O)CCCC[C@@H]1SC[C@@H]2NC(=O)N[C@@H]21 [biotin, Biotin]	21	–	–	–	–	–	–	–	–	–	–	–	–	–
OC[C@H]1O[C@H](OC[C@H]2O[C@H](O[C@]3(CO)O[C@H](CO)[C@@H](O)[C@@H]3O)[C@H](O)[C@@H](O)[C@@H]2O)[C@H](O)[C@@H](O)[C@H]1O [Rafinose]	–	+ (+, weak positive, under 50% of the activity of the fresh mixture)	+ (+, weak positive, under 50% of the activity of the fresh mixture)	+ (+, weak positive, under 50% of the activity of the fresh mixture)	+ (+, weak positive, under 50% of the activity of the fresh mixture)	+ (+, weak positive, under 50% of the activity of the fresh mixture)	+ (+, weak positive, under 50% of the activity of the fresh mixture)	+ (+, weak positive, under 50% of the activity of the fresh mixture)	+ (+, weak positive, under 50% of the activity of the fresh mixture)	+ (+, weak positive, under 50% of the activity of the fresh mixture)	+ (+, weak positive, under 50% of the activity of the fresh mixture)	+ (+, weak positive, under 50% of the activity of the fresh mixture)	+ (+, weak positive, under 50% of the activity of the fresh mixture)	+ (+, weak positive, under 50% of the activity of the fresh mixture)
